Results taken from patent publication EP0019589A1, “Tripeptide derivatives and their use in a process for determining enzymes” (Pentapharm A.G., priority 1979, dated 1980).
Non-standard residues stand in square brackets, D forms with d. Residues, ends and D or L forms follow the SMILES beside them. *: point of attachment. Cha = N[C@@H](CC1CCCCC1)C(=O)O; dCha = N[C@H](CC1CCCCC1)C(=O)O; dChg = N[C@@H](C(=O)O)C1CCCCC1; dPhg = N[C@@H](C(=O)O)c1ccccc1; pNA = O=[N+]([O-])c1ccc(N*)cc1; Chg = N[C@H](C(=O)O)C1CCCCC1; Phg = N[C@H](C(=O)O)c1ccccc1; dNva = CCC[C@@H](N)C(=O)O; dPip = O=C(O)[C@H]1CCCCN1; dAbu = CC[C@@H](N)C(=O)O; Nva = CCC[C@H](N)C(=O)O; Abu = CC[C@H](N)C(=O)O

How the values were obtained:
Format in all cases: biochemical
Urinkallikrein = target: T1, Urinkallikrein (Homo sapiens, UniProt P06870); experiment: Cleavage of chromogenic substrate by urinary kallikrein in human urine; conditions: 1 ml human urine (pooled morning urine of healthy persons), per min; Substratkonzentration 2 x 10^-4 molar
T1 construct: 1 ml Urin und 1 ml TRIS-Imidazol-Puffer mit pH 7,9; from tissue; host or cells: human urine

[1] = target: T2, Submandibularis-Kallikrein (Homo sapiens, UniProt P06870); experiment: Cleavage of chromogenic substrate by submandibular (glandular) kallikrein in human sputum; conditions: 1 ml human sputum, per min; Substratkonzentration 2 x 10^-4 molar
T2 construct: Man mischt 0,5 ml Sputum mit 2 ml TRIS-Imidazol-Puffer; from tissue; host or cells: human sputum
How it was run: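 Sputum mixed with TRIS-imidazole buffer (ionic strength 1.0), preincubated 5 min at 37°C and centrifuged; supernatant incubated with aqueous substrate solution (2 x 10^-3 M, stock). p-Nitroaniline release followed continuously at 405 nm for 5-10 min; activity expressed as mU per ml sputum from ΔOD/min.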

Humanplasmin = target: T3, Humanplasmin (Homo sapiens, UniProt P00747); experiment: Cleavage of chromogenic substrate by human plasmin; conditions: 1 CU-Einheit human plasmin, per min; Substratkonzentration 2 x 10^-4 molar
T3 construct: da bei der Aktivierung aus 1 Molekül Plasminogen 1 Molekül Plasmin entsteht

Humanthrombin = target: T4, Humanthrombin (Homo sapiens, UniProt P00734); experiment: Cleavage of chromogenic substrate by human NIH thrombin; conditions: 1 NIH-Einheit human thrombin, per min; Substratkonzentration 2 x 10^-4 molar
T4 construct: Humanplasmin und hu-manem NIH-Thrombin
How it was run: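 Thrombin hydrolysis of chromogenic p-nitroanilide substrate read spectrophotometrically at 405 nm; fluorogenic naphthylamine, methylcoumarylamine or di(methoxycarbonyl)phenylamine substrates read continuously by fluorescence emission at 400-470 nm. Activity taken as product formed per unit time; 1 µmol product/min defined as 1 enzyme unit for a given substrate.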

T3 sequence (P00747 581-810 limits assumed): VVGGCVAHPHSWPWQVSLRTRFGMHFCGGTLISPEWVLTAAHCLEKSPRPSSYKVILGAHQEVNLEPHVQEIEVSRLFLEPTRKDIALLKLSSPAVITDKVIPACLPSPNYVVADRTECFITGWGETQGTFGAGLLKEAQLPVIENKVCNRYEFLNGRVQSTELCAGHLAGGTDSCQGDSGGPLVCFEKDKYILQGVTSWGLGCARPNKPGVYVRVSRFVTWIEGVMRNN
T3 sequence (P00747 97-580 partner limits assumed): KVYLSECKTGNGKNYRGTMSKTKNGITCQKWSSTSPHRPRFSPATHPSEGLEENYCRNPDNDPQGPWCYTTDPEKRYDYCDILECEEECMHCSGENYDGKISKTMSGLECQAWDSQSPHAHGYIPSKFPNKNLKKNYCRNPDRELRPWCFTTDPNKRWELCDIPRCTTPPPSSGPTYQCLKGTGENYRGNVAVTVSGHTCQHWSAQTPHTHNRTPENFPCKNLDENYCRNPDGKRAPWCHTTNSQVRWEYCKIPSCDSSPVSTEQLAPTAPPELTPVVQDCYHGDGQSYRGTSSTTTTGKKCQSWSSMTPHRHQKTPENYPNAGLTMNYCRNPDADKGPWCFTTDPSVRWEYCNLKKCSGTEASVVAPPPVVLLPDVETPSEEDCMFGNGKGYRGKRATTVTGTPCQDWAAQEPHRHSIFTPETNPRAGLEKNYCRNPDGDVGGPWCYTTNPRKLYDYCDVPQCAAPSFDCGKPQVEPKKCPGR
T2 sequence (P06870 25-262): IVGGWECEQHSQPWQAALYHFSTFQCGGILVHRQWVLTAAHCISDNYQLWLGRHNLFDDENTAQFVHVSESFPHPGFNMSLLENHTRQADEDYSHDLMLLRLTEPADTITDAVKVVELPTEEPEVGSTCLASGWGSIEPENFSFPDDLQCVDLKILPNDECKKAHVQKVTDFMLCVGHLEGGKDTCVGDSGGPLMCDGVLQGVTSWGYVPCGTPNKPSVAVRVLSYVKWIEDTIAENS
T1 sequence (P06870 25-262): as above

Compound | Menge des durch 1 ml Humanurin pro Min. freigesetzten Spaltproduktes R-NH2 in Nanomol (Urinkallikrein) (Urinkallikrein) | Menge des durch 1 ml Humansputum pro Min. freigesetzten Spaltproduktes R-NH2 in Nanomol (Submandibularis-Kallikrein) [1] | Menge des durch 1 CU-Einheit Humanplasmin pro Min. freigesetzten Spaltproduktes R-NH2 in Nanomol (Humanplasmin) (Humanplasmin) | Menge des durch 1 NIH-Einheit Thrombin pro Min. freigesetzten Spaltproduktes R-NH2 in Nanomol (Humanthrombin) (Humanthrombin)
CC[C@H](NC(=O)[C@H](N)CC1CCC(O)CC1)C(=O)N[C@@H](CCCNC(=N)N)C(=O)Nc1ccc([N+](=O)[O-])cc1 (stereo partly drawn) [Beispiel 77, 2HBr.H-D-CHT-But-Arg-pNA] | 0,64 Nanomol | 18,2 Nanomol | 463 Nanomol | 114,2 Nanomol
C[C@H](NC(=O)[C@H](N)C1CCCCC1)C(=O)N[C@@H](CCCNC(=N)N)C(=O)Nc1ccc([N+](=O)[O-])cc1 [Beispiel 48, 2HBr.H-D-CHG-Ala-Arg-pNA] (H-[dChg]-Ala-Arg-pNA) | 0,72 Nanomol | 9,5 Nanomol | 239 Nanomol | 158 Nanomol
CC(C)[C@@H](N)C(=O)N[C@H](C(=O)N[C@@H](CCCCN)C(=O)Nc1ccc([N+](=O)[O-])cc1)C1CCCCC1 [Beispiel 30, 2AcOH.H-D-Val-CHG-Lys-pNA] (H-[dV]-[Chg]-Lys-pNA) | 0 Nanomol | 1,3 Nanomol | 61 Nanomol | 0,27 Nanomol
2HBr.H-D-CHT-Phe-Arg-pNA [Beispiel 17] | 0,77 Nanomol | 7,4 Nanomol | 860 Nanomol | 18,7 Nanomol
CCC[C@@H](N)C(=O)N[C@H](C(=O)N[C@@H](CCCNC(=N)N)C(=O)Nc1ccc([N+](=O)[O-])cc1)c1ccccc1 [Beispiel 54, 2HBr.H-D-Nval-Ph'Gly-Arg-pNA] (H-[dNva]-[Phg]-Arg-pNA) | 0,58 Nanomol | 22,9 Nanomol | 382 Nanomol | 19,2 Nanomol
CC[C@@H](C)[C@@H](N)C(=O)N[C@@H](CC1CCCCC1)C(=O)N[C@@H](CCCCN)C(=O)Nc1ccc([N+](=O)[O-])cc1 [Beispiel 15, 2HBr.H-D-Ile-CHA-Lys-pNA] (H-[dI]-[Cha]-Lys-pNA) | 2,50 Nanomol | 23,1 Nanomol | 440 Nanomol | 0,39 Nanomol
C[C@@H](N)C(=O)N[C@H](C(=O)N[C@@H](CCCNC(=N)N)C(=O)Nc1ccc([N+](=O)[O-])cc1)c1ccccc1 [Beispiel 55, 2HBr.H-D-Ala-Ph'Gly-Arg-pNA] (H-[dA]-[Phg]-Arg-pNA) | 0,42 Nanomol | 23,5 Nanomol | 141 Nanomol | 4,2 Nanomol
N=C(N)NCCC[C@H](NC(=O)[C@H](Cc1ccc(O)cc1)NC(=O)[C@H](N)Cc1ccccc1)C(=O)Nc1ccc([N+](=O)[O-])cc1 [Beispiel 46, 2HBr.H-D-Phe-Tyr-Arg-pNA] (H-[dF]-Tyr-Arg-pNA) | 0,26 Nanomol | 6,1 Nanomol | 843 Nanomol | 2,6 Nanomol
CCC[C@H](NC(=O)[C@H](N)C1CCCCC1)C(=O)N[C@@H](CCCNC(=N)N)C(=O)Nc1ccc([N+](=O)[O-])cc1 [Beispiel 70, 2HBr.H-D-CHG-Nval-Arg-pNA] (H-[dChg]-[Nva]-Arg-pNA) | 0,38 Nanomol | 24,2 Nanomol | 488 Nanomol | 67,4 Nanomol
CC[C@H](NC(=O)[C@H](N)CC1CCCCC1)C(=O)N[C@@H](CCCNC(=N)N)C(=O)Nc1ccc([N+](=O)[O-])cc1 [Beispiel 76, 2HBr.H-D-CHA-But-Arg-pNA] (H-[dCha]-[Abu]-Arg-pNA) | 0,51 Nanomol | 18,1 Nanomol | 478 Nanomol | 108,9 Nanomol
N=C(N)NCCC[C@H](NC(=O)[C@@H](NC(=O)[C@H]1CCCCN1)C1CCCCC1)C(=O)Nc1ccc([N+](=O)[O-])cc1 [Beispiel 60, 2HBr.H-D-Pip-CHG-Arg-pNA] (H-[dPip]-[Chg]-Arg-pNA) | 0 Nanomol | 1,4 Nanomol | 10 Nanomol | 1,3 Nanomol
CC[C@@H](N)C(=O)N[C@@H](CC1CCCCC1)C(=O)N[C@@H](CCCNC(=N)N)C(=O)Nc1ccc([N+](=O)[O-])cc1 [Beispiel 41, 2HBr.H-D-But-CHA-Arg-pNA] (H-[dAbu]-[Cha]-Arg-pNA) | 2,99 Nanomol | 31,2 Nanomol | 623 Nanomol | 2,8 Nanomol
CC(C)C[C@H](NC(=O)[C@H](N)c1ccccc1)C(=O)N[C@@H](CCCNC(=N)N)C(=O)Nc1ccc([N+](=O)[O-])cc1 [Beispiel 26, 2HBr.H-D-Ph'Gly-Leu-Arg-pNA] (H-[dPhg]-Leu-Arg-pNA) | 0,19 Nanomol | 8,3 Nanomol | 194 Nanomol | 0,8 Nanomol
